Legend:
[1] = target: T1, ACVRL1 (Homo sapiens, UniProt P37023); experiment: KINOMEscan 1 μM, ACVRL1; format: binding; conditions: 1000 nM; Entrez ACVRL1; read-out: Percent Control
T1 construct: purchased Eurofins DiscoverX KINOMEscan
Text: (§1) Supplement cells-12-00287-s001.zip/File S2. KinomeScan data for the CAMKK2 probe and negative control.xlsx, sheet "SGC-CAMKK2-1" | column: Percent Control

[2] = target: T2, MET(Y1235D) (Homo sapiens, UniProt P08581, Y1235D); experiment: KINOMEscan 1 μM, MET(Y1235D); format: binding; conditions: 1000 nM; Entrez MET; read-out: Percent Control
T2 construct: purchased Eurofins DiscoverX KINOMEscan
T2 sequence (P08581 25-1390 Y1235D): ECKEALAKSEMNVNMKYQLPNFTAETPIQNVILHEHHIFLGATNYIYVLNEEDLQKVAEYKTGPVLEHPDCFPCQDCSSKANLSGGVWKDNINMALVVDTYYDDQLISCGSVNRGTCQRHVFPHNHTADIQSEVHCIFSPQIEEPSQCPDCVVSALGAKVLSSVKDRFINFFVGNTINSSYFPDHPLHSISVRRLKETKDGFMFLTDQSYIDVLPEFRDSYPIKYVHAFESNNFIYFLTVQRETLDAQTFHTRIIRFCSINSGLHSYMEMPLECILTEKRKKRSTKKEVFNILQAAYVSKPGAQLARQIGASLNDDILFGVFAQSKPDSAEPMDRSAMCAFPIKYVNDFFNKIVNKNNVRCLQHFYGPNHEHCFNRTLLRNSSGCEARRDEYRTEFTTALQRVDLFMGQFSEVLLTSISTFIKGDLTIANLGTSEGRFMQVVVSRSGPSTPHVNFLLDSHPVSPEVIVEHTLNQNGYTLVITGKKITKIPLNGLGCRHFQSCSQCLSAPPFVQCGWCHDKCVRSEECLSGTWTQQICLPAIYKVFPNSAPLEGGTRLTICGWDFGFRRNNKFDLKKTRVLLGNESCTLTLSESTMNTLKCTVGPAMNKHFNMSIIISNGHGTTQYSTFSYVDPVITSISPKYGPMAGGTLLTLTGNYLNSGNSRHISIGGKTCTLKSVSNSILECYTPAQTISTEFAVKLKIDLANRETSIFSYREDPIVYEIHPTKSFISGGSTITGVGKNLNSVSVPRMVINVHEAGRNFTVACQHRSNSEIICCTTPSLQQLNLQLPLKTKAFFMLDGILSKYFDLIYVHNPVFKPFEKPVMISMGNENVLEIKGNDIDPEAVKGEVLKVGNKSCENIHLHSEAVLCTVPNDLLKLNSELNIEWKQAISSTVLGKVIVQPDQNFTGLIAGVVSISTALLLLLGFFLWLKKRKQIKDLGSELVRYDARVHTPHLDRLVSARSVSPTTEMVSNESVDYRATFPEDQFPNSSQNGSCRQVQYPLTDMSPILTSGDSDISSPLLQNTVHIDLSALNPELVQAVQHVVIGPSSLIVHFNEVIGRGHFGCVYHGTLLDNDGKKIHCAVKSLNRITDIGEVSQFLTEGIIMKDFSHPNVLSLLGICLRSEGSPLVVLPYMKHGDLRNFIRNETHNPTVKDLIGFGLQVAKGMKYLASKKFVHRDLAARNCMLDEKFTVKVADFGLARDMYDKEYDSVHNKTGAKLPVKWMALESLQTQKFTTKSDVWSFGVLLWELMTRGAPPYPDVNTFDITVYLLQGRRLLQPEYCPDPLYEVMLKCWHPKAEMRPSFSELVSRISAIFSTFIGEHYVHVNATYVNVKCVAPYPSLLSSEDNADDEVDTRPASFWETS
Text: as §1

[3] = target: T3, CDK7 (Homo sapiens, UniProt P50613); experiment: KINOMEscan 1 μM, CDK7; format: binding; conditions: 1000 nM; Entrez CDK7; read-out: Percent Control
T3 construct: purchased Eurofins DiscoverX KINOMEscan
Text: as §1

[4] = target: T4, PRKR (Homo sapiens, UniProt P19525); experiment: DiscoverX KINOMEscan binding assay at 1 μM, PRKR; conditions: PRKR (EIF2AK2); Compound Concentration 1000 nM; read-out: Percent Control
T4 construct: purchased Eurofins DiscoverX KINOMEscan
Text: as §1

[5] = target: T5, RIPK2 (Homo sapiens, UniProt O43353); experiment: KINOMEscan 1 μM, RIPK2; format: binding; conditions: 1000 nM; Entrez RIPK2; read-out: Percent Control
T5 construct: purchased Eurofins DiscoverX KINOMEscan
Text: as §1

[6] = target: T6, CLK3 (Homo sapiens, UniProt P49761); experiment: KINOMEscan 1 μM, CLK3; format: binding; conditions: 1000 nM; Entrez CLK3; read-out: Percent Control
T6 construct: purchased Eurofins DiscoverX KINOMEscan
Text: as §1

[7] = target: T7, MET(M1250T) (Homo sapiens, UniProt P08581, M1250T); experiment: KINOMEscan 1 μM, MET(M1250T); format: binding; conditions: 1000 nM; Entrez MET; read-out: Percent Control
T7 construct: purchased Eurofins DiscoverX KINOMEscan
Text: as §1

[8] = target: T8, LCK (Homo sapiens, UniProt P06239); experiment: KINOMEscan 1 μM, LCK; format: binding; conditions: 1000 nM; Entrez LCK; read-out: Percent Control
T8 construct: purchased Eurofins DiscoverX KINOMEscan
Text: as §1

[9] = target: T9, AURKB (Homo sapiens, UniProt Q96GD4); experiment: KINOMEscan 1 μM, AURKB; format: binding; conditions: 1000 nM; Entrez AURKB; read-out: Percent Control
T9 construct: purchased Eurofins DiscoverX KINOMEscan
Text: as §1

[10] = target: T10, FGR (Homo sapiens, UniProt P09769); experiment: KINOMEscan 1 μM, FGR; format: binding; conditions: 1000 nM; Entrez FGR; read-out: Percent Control
T10 construct: purchased Eurofins DiscoverX KINOMEscan
Text: as §1

[11] = target: T11, RPS6KA5(Kin.Dom.1-N-terminal) (Homo sapiens, UniProt O75582); experiment: KINOMEscan 1 μM, RPS6KA5(Kin.Dom.1-N-terminal); format: binding; conditions: 1000 nM; Entrez RPS6KA5; read-out: Percent Control
T11 construct: RPS6KA5(Kin.Dom.1-N-terminal); purchased Eurofins DiscoverX KINOMEscan
T11 sequence (O75582 1-387 limits assumed): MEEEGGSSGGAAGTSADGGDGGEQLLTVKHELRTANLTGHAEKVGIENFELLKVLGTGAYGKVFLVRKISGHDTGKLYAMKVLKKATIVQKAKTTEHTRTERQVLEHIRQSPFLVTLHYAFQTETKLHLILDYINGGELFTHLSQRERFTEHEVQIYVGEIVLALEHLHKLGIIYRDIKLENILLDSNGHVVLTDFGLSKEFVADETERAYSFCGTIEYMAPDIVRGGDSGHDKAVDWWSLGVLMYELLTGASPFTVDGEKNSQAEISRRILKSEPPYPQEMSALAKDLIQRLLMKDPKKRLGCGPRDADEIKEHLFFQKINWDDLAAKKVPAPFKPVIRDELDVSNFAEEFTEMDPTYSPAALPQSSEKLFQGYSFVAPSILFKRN
Text: as §1

[12] = target: T12, YSK1 (Homo sapiens, UniProt O00506); experiment: DiscoverX KINOMEscan binding assay at 1 μM, YSK1; conditions: YSK1 (STK25); Compound Concentration 1000 nM; read-out: Percent Control
T12 construct: purchased Eurofins DiscoverX KINOMEscan
Text: as §1

[13] = target: T13, RIOK2 (Homo sapiens, UniProt Q9BVS4); experiment: DiscoverX KINOMEscan binding assay at 1 μM, RIOK2; conditions: Compound Concentration 1000 nM, read-out: Percent Control
T13 construct: purchased Eurofins DiscoverX KINOMEscan
Text: as §1

[14] = target: T14, TAOK2 (Homo sapiens, UniProt Q9UL54); experiment: KINOMEscan 1 μM, TAOK2; format: binding; conditions: 1000 nM; Entrez TAOK2; read-out: Percent Control
T14 construct: purchased Eurofins DiscoverX KINOMEscan
T14 sequence (Q9UL54 whole entry): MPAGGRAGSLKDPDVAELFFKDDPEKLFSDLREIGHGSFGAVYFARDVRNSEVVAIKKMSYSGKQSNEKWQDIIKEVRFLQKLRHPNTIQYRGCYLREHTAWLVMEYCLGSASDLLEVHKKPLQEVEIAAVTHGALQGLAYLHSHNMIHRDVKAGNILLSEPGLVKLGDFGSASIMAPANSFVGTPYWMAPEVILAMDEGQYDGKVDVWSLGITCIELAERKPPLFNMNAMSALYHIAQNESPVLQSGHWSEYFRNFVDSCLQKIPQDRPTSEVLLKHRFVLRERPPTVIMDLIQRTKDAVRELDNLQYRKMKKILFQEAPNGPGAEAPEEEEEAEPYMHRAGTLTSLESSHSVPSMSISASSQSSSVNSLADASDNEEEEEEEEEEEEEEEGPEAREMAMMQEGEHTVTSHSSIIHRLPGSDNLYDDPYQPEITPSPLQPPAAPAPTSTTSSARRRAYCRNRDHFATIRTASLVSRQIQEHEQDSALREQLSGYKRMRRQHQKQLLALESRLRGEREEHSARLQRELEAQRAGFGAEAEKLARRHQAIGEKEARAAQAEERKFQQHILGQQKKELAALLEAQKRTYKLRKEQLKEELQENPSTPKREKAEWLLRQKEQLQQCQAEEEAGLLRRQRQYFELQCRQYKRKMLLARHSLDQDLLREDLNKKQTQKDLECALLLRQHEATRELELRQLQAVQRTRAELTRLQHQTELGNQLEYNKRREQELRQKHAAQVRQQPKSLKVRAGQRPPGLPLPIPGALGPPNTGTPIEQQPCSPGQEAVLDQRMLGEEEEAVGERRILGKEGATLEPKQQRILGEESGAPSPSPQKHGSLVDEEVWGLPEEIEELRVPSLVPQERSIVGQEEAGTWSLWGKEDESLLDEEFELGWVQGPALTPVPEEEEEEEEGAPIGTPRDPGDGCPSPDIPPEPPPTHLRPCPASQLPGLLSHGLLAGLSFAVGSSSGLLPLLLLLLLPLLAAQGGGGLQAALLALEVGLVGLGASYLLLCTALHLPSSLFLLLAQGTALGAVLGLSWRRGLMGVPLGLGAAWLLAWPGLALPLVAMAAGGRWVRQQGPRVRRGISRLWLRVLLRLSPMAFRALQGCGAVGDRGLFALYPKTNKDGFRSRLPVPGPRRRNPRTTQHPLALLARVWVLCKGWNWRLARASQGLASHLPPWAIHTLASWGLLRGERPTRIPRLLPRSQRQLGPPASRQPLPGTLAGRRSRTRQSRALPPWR
Text: as §1

[15] = target: T15, CDKL1 (Homo sapiens, UniProt Q00532); experiment: KINOMEscan 1 μM, CDKL1; format: binding; conditions: 1000 nM; Entrez CDKL1; read-out: Percent Control
T15 construct: purchased Eurofins DiscoverX KINOMEscan
Text: as §1

[16] = target: T16, MKNK1 (Homo sapiens, UniProt Q9BUB5); experiment: KINOMEscan 1 μM, MKNK1; format: binding; conditions: 1000 nM; Entrez MKNK1; read-out: Percent Control
T16 construct: purchased Eurofins DiscoverX KINOMEscan
Text: as §1

[17] = target: T17, ABL1(T315I)-phosphorylated (Homo sapiens, UniProt P00519, T315I); experiment: KINOMEscan 1 μM, ABL1(T315I)-phosphorylated; format: binding; conditions: 1000 nM; Entrez ABL1; read-out: Percent Control
T17 construct: purchased Eurofins DiscoverX KINOMEscan
Text: as §1

[18] = target: T18, TYK2(JH2domain-pseudokinase) (Homo sapiens, UniProt P29597); experiment: DiscoverX KINOMEscan binding assay at 1 μM, TYK2(JH2domain-pseudokinase); conditions: Compound Concentration 1000 nM, read-out: Percent Control
T18 construct: TYK2(JH2domain-pseudokinase); purchased Eurofins DiscoverX KINOMEscan
T18 sequence (P29597 556-888 limits assumed): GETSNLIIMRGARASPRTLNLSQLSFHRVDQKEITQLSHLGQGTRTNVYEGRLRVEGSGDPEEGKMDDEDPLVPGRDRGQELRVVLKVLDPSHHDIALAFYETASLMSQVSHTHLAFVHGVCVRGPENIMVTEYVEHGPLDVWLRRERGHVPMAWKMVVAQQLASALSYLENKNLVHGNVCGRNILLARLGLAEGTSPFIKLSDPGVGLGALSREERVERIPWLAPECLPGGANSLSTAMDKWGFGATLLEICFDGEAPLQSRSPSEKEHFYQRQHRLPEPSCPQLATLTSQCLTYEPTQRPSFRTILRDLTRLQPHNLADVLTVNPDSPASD
Text: as §1

[19] = target: T19, MELK (Homo sapiens, UniProt Q14680); experiment: KINOMEscan 1 μM, MELK; format: binding; conditions: 1000 nM; Entrez MELK; read-out: Percent Control
T19 construct: purchased Eurofins DiscoverX KINOMEscan
Text: as §1

[20] = target: T20, INSR (Homo sapiens, UniProt P06213); experiment: KINOMEscan at 1 μM, INSR; format: binding; conditions: 1000 nM, read-out: Percent Control
T20 construct: purchased Eurofins DiscoverX KINOMEscan
T20 sequence (P06213 28-1382): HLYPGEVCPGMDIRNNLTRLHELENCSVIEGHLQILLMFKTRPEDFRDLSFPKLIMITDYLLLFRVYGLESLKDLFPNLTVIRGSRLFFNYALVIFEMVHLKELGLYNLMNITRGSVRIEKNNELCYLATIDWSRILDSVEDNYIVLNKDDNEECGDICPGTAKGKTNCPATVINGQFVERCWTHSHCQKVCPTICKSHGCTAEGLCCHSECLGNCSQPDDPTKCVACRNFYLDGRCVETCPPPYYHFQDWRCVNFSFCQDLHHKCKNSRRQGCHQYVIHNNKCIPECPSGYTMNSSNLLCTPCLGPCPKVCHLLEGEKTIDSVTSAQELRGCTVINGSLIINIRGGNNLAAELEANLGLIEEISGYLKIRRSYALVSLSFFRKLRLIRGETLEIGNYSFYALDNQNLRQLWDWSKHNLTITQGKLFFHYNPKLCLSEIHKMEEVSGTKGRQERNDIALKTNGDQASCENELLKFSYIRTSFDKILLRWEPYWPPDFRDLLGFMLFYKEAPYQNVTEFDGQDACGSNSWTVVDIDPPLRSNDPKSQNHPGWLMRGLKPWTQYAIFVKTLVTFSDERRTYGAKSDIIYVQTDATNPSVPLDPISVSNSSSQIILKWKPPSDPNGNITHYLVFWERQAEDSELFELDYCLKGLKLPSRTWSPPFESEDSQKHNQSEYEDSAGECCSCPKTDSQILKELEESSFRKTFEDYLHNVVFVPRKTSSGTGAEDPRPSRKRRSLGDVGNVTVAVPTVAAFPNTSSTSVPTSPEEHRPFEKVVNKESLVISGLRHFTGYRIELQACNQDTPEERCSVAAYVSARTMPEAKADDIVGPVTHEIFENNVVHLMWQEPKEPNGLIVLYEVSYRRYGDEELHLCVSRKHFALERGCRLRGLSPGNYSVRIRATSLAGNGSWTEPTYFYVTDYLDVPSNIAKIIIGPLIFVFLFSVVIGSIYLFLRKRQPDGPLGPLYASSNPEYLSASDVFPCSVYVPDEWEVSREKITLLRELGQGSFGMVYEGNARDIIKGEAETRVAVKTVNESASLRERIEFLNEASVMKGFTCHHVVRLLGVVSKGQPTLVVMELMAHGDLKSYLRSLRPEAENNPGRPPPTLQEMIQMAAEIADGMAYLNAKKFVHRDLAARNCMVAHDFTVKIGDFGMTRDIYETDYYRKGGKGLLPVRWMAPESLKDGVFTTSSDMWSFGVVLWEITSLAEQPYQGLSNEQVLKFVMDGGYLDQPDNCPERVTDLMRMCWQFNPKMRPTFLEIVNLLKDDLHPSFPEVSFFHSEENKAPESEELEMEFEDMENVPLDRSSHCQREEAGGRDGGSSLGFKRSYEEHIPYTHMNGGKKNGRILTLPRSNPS
Text: (§2) Supplement cells-12-00287-s001.zip/File S2. KinomeScan data for the CAMKK2 probe and negative control.xlsx, sheet "SGC-CAMKK2-1N" | column: Percent Control

[21] = target: T21, ERBB3 (Homo sapiens, UniProt P21860); experiment: KINOMEscan at 1 μM, ERBB3; format: binding; conditions: 1000 nM, read-out: Percent Control
T21 construct: purchased Eurofins DiscoverX KINOMEscan
Text: as §2

[22] = target: T22, GAK (Homo sapiens, UniProt O14976); experiment: KINOMEscan at 1 μM, GAK; format: binding; conditions: 1000 nM, read-out: Percent Control
T22 construct: purchased Eurofins DiscoverX KINOMEscan
Text: as §2

[23] = target: T23, NEK5 (Homo sapiens, UniProt Q6P3R8); experiment: KINOMEscan at 1 μM, NEK5; format: binding; conditions: 1000 nM, read-out: Percent Control
T23 construct: purchased Eurofins DiscoverX KINOMEscan
Text: as §2

[24] = target: T24, LRRK2 (Homo sapiens, UniProt Q5S007); experiment: KINOMEscan at 1 μM, LRRK2; format: binding; conditions: 1000 nM, read-out: Percent Control
T24 construct: purchased Eurofins DiscoverX KINOMEscan
Text: as §2

[25] = target: T25, ERBB2 (Homo sapiens, UniProt P04626); experiment: KINOMEscan binding assay at 1 μM, ERBB2; conditions: Compound Concentration 1000 nM; read-out: Percent Control
T25 construct: purchased Eurofins DiscoverX KINOMEscan
Text: as §2

[26] = target: T26, MTOR (Homo sapiens, UniProt P42345); experiment: KINOMEscan binding assay at 1 μM, MTOR; conditions: Compound Concentration 1000 nM; read-out: Percent Control
T26 construct: purchased Eurofins DiscoverX KINOMEscan
Text: as §2

[27] = target: T27, PHKG1 (Homo sapiens, UniProt Q16816); experiment: KINOMEscan at 1 μM, PHKG1; format: binding; conditions: 1000 nM, read-out: Percent Control
T27 construct: purchased Eurofins DiscoverX KINOMEscan
T27 sequence (Q16816 whole entry): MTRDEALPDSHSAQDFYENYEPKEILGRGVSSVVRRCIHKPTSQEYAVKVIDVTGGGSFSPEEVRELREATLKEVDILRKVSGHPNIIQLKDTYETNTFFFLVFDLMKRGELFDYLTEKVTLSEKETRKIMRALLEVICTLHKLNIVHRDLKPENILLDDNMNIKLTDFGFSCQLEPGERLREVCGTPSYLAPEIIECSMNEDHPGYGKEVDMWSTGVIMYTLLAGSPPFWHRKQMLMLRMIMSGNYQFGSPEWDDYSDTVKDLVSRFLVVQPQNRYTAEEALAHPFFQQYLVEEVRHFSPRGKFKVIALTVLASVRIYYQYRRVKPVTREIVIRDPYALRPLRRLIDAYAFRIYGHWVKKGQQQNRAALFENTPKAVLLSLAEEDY
Text: as §2

[28] = target: T28, JAK1(JH2domain-pseudokinase) (Homo sapiens, UniProt P23458); experiment: KINOMEscan at 1 μM, JAK1(JH2domain-pseudokinase); format: binding; conditions: 1000 nM, read-out: Percent Control
T28 construct: JAK1(JH2domain-pseudokinase); purchased Eurofins DiscoverX KINOMEscan
Text: as §2

[29] = target: T29, EPHB1 (Homo sapiens, UniProt P54762); experiment: KINOMEscan at 1 μM, EPHB1; format: binding; conditions: 1000 nM, read-out: Percent Control
T29 construct: purchased Eurofins DiscoverX KINOMEscan
Text: as §2

[30] = target: T30, ABL1(F317L)-phosphorylated (Homo sapiens, UniProt P00519, F317L); experiment: KINOMEscan at 1 μM, ABL1(F317L)-phosphorylated; format: binding; conditions: 1000 nM, read-out: Percent Control
T30 construct: purchased Eurofins DiscoverX KINOMEscan
Text: as §2

[31] = target: T31, AKT1 (Homo sapiens, UniProt P31749); experiment: KINOMEscan at 1 μM, AKT1; format: binding; conditions: 1000 nM, read-out: Percent Control
T31 construct: purchased Eurofins DiscoverX KINOMEscan
Text: as §2

[32] = target: T32, MST1R (Homo sapiens, UniProt Q04912); experiment: KINOMEscan at 1 μM, MST1R; format: binding; conditions: 1000 nM, read-out: Percent Control
T32 construct: purchased Eurofins DiscoverX KINOMEscan
Text: as §2

## Cc1cccc(-c2cnc3occ(-c4ccc(C(=O)O)c(C5CCCC5)c4)c3c2)c1 [SGC-CAMKK2-1 (YL-36)]
[1]
  remaining binding at 1 µM: 100%
[2]
  remaining binding at 1 µM: 98%
[3]
  remaining binding at 1 µM: 92%
[4]
  remaining binding at 1 µM: 100%
[5]
  remaining binding at 1 µM: 55%
[6]
  remaining binding at 1 µM: 100%
[7]
  remaining binding at 1 µM: 100%
[8]
  remaining binding at 1 µM: 86%
[9]
  remaining binding at 1 µM: 100%
[10]
  remaining binding at 1 µM: 100%
[11]
  remaining binding at 1 µM: 98%
[12]
  remaining binding at 1 µM: 100%
[13]
  remaining binding at 1 µM: 100%
[14]
  remaining binding at 1 µM: 90%
[15]
  remaining binding at 1 µM: 100%
[16]
  remaining binding at 1 µM: 100%
[17]
  remaining binding at 1 µM: 100%
[18]
  remaining binding at 1 µM: 100%
[19]
  remaining binding at 1 µM: 79%

## O=C(O)c1ccc(-c2coc3ncc(-c4ccccc4)cc23)cc1Cl [SGC-CAMKK2-1N (UNC-YL-83)]
[20]
  remaining binding at 1 µM: 93%
[21]
  remaining binding at 1 µM: 64%
[22]
  remaining binding at 1 µM: 88%
[23]
  remaining binding at 1 µM: 93%
[24]
  remaining binding at 1 µM: 47%
[25]
  remaining binding at 1 µM: 100%
[26]
  remaining binding at 1 µM: 100%
[27]
  remaining binding at 1 µM: 93%
[28]
  remaining binding at 1 µM: 80%
[29]
  remaining binding at 1 µM: 91%
[30]
  remaining binding at 1 µM: 79%
[31]
  remaining binding at 1 µM: 100%
[32]
  remaining binding at 1 µM: 98%
